# Test system: Plasmodium falciparum
# Assay: Antimalarial activity against chloroquine-sensitive Plasmodium falciparum FCR-3 assessed as growth inhibition
# Assay type: functional, organism-based
row,Structure (SMILES),EC50 [nM]
1,O=C(C[C@@H]1NCCC[C@H]1O)Cn1cnc2ccccc2c1=O (stereo in doubt; (+)-1) [FEBRIFUGINE],0.076
2,O=C(C[C@@H]1NCCC[C@H]1O)Cn1cnc2ccccc2c1=O (stereo in doubt; (-)-1) [FEBRIFUGINE],200

# Test system: Plasmodium falciparum
# Assay: Antimalarial activity against Plasmodium falciparum assessed as growth inhibition
# Assay type: functional, organism-based
row,Structure (SMILES),EC50 [nM]
1,O=c1c2ccccc2ncn1C[C@@H]1C[C@@H]2[C@@H](O)CCCN2CO1,3.7
2,COCO[C@H]1CCCN2CO[C@H](Cn3cnc4ccccc4c3=O)C[C@H]12,8.6
3,CC(=O)O[C@H]1CCCN(C(C)=O)[C@@H]1CC(=O)Cn1cnc2ccccc2c1=O,910
4,CCOC(=O)N1CCC[C@H](O)[C@H]1CC(=O)Cn1cnc2ccccc2c1=O,4800
5,O=C(C[C@H]1NCCCC1=O)Cn1cnc2ccccc2c1=O,20

# Test system: Plasmodium berghei
# Assay: Antimalarial activity against Plasmodium berghei infected in mouse
# Assay type: functional
row,Structure (SMILES),ED50 [mg/kg/day]
1,O=C(C[C@H]1NCCC[C@@H]1O)Cn1cnc2ccc(O)cc2c1=O,0.3
2,O=C(C[C@H]1NCC[C@H](O)[C@@H]1O)Cn1cnc2ccccc2c1=O,2.4
3,O=C(C[C@@H]1NCCC[C@H]1O)Cn1cnc2ccccc2c1=O (stereo in doubt; (+)-1) [FEBRIFUGINE],0.6

# — ChEMBL document CHEMBL3232880, “The chemistry and biology of febrifugine and halofuginone” (Bioorg Med Chem, 2014)
